The nature of data set [1]: Epi-lutein study: plasma levels after oral administration (gavage) for 7 consecutive days. The format is in vivo, Rats, Sprague-Dawley. The conditions noted are these: for Cmax: day 7, rat plasma; for AUC / AUC(0-t): rat, plasma; for AUC: read-out: AUC0-τ; for AUC(0-t): read-out: AUC0-12 h; for AUC0-12 h (dose corrected) / AUC0-τ (dose corrected) / Cmax (dose corrected): dose corrected to 0.1 mg Lutein/kg BW. As to the method:
[table] Study Design: Oral administration (gavage) of Treatment I for 7 consecutive days in 5 rats followed by a 14 days wash-out period and oral administration (gavage) of Treatment II for 7 consecutive days Blood Sampling: On day 7 of treatment prior to treatment and 15 min, 1, 3, 6, 9, 12 and 24 hours after treatment. About 400 μL blood were be transferred to Vacutainer tubes containing EDTA. Whole blood samples were centrifuged, as soon as possible from the designated time of collection, at 1200 g for approximately 10 minutes. All plasma samples (at least 200 μL) were be stored deep frozen at ≦−30° C., until shipping on dry ice. [table] Plasma Analysis: Lutein, Epilutein, Zeaxanthin and Oxidized metabolites

Data set [2] in a line: Pharmacokinetics of lutein and zeaxanthin with/without epi-lutein after intravenous administration. Format: in vivo, wistar rats. As to the method: 14 days wash-out period before this study
Subject: 3 wistar rats each group
Feeding type: intravenous administration
Group A: 4 mg lutein/Kg body weight
Group B: (2 mg lutein+2 mg epi-lutein)/Kg body weight
Group C: 4 mg zeaxanthin/Kg body weight
Group D: (2 mg zeaxanthin 2 mg epi-lutein)/Kg body weight
Blood sampling: 15, 30, 60 minutes, 3 and 6 hours after feeding

The mark [3] stands for this setting: Treatment II (mixture together with epi-lutein).

The structures appear in SMILES notation. Like-named read-outs stand apart in the source and are kept apart here.

By Cmax is commonly meant the highest concentration seen after dosing. `CC1=C[C@@H](O)CC(C)(C)[C@H]1/C=C/C(C)=C/C=C/C(C)=C/C=C/C=C(C)/C=C/C=C(C)/C=C/C1=C(C)C[C@@H](O)CC1(C)C` [Epi-Lutein, (3R,3′S,6′R)-lutein]: in data set [1] (Treatment II (0.147 mg lutein + 0.135 mg epi-lutein/kg BW, oral gavage), day 7), the AUC0-12 h was 3724 ng·h/mL. Further, in data set [1] (Treatment II (0.147 mg lutein + 0.135 mg epi-lutein/kg BW, oral gavage)), the highest concentration (Cmax) was found to be 428 ng/mL. In data set [1] (Treatment II (0.147 mg lutein + 0.135 mg epi-lutein/kg BW, oral gavage), day 7, τ 24 hours), the AUC0-τ stood at 6286 ng·h/mL.
What is called AUC(0-inf) is the area under the concentration-time curve extrapolated to infinity. Low readings indicate low exposure, high ones high exposure. Regarding `CC1=C[C@H](O)CC(C)(C)[C@H]1/C=C/C(C)=C/C=C/C(C)=C/C=C/C=C(C)/C=C/C=C(C)/C=C/C1=C(C)C[C@@H](O)CC1(C)C` [Lutein, (3R,3′R,6′R)-beta, epsilon-carotene-3,3′-diol], the AUC(0-inf) in data set [2] (rat, 4 mg/kg, heading: AUC0-inf, wistar rats, intravenous, A 4 mg lutein/Kg, B 2 mg lutein+2 mg epi-lutein/Kg, C 4 mg zeaxanthin/Kg, D 2 mg zeaxanthin+2 mg epi-lutein/Kg, lutein (A,B) or zeaxanthin (C,D) in plasma) was 21300 ng·h/mL. The AUC(0-t) turned out to be 11700 ng·h/mL in data set [2] (rat, 4 mg/kg, heading: AUC0-t, wistar rats, intravenous, A 4 mg lutein/Kg, B 2 mg lutein+2 mg epi-lutein/Kg, C 4 mg zeaxanthin/Kg, D 2 mg zeaxanthin+2 mg epi-lutein/Kg, lutein (A,B) or zeaxanthin (C,D) in plasma); 9780 ng·h/mL in data set [1] (Sprague-Dawley, 0.282 mg/kg BW, Treatment I (0.282 mg lutein/kg BW, oral gavage), day 7); 9340 ng·h/mL in data set [1] (Sprague-Dawley, Treatment II (0.147 mg lutein + 0.135 mg epi-lutein/kg BW, oral gavage), day 7). Also, the half-life in data set [2] (rat, 4 mg/kg, wistar rats, intravenous, A 4 mg lutein/Kg, B 2 mg lutein+2 mg epi-lutein/Kg, C 4 mg zeaxanthin/Kg, D 2 mg zeaxanthin+2 mg epi-lutein/Kg, lutein (A,B) or zeaxanthin (C,D) in plasma, read-out: T½) was found to be 5.08 h. In addition, the “plasma half life after treatment with epi-lutein” value in data set [2] (wistar rats, intravenous, with vs without epi-lutein) is reported as “substantially prolonged”. Further, the “increase in the pharmacokinetic parameters of lutein, dose corrected” value in data set [1] (0.1 mg lutein/kg BW mixed with approximately 0.1 mg epi-lutein/kg BW vs single compound, time interval 0-12 hours) was “about 100%”. Besides, the Cmax was 941 ng/mL in data set [1] (Sprague-Dawley, 0.282 mg/kg BW, Treatment I (0.282 mg lutein/kg BW, oral gavage), read-out: Cmax) and 939 ng/mL in data set [1] (Sprague-Dawley, Treatment II (0.147 mg lutein + 0.135 mg epi-lutein/kg BW, oral gavage), read-out: Cmax). The AUC in data set [1] (Sprague-Dawley, 0.282 mg/kg BW, Treatment I (0.282 mg lutein/kg BW, oral gavage), day 7, τ 24 hours) worked out at 18100 ng·h/mL; in data set [1] (Sprague-Dawley, Treatment II (0.147 mg lutein + 0.135 mg epi-lutein/kg BW, oral gavage), day 7, τ 24 hours) it was 14300 ng·h/mL. In addition, the “AUC0-12 h (dose corrected)” value is 3261 ng × h × ml^−1/0.1 mg Lut/kg B in data set [1] (Treatment I (pure compound)) and 6230 ng × h × ml^−1/0.1 mg Lut/kg B in data set [1] (setting [3]). The “AUC0-τ (dose corrected)” value in data set [1] (Treatment I (pure compound)) is 6050 ng × h × ml^−1/0.1 mg Lut/kg B; in data set [1] (setting [3]) it was 9560 ng × h × ml^−1/0.1 mg Lut/kg B. Besides, the “Cmax (dose corrected)” value is 314 [ng/ml]/0.1 mg Lut/kg BW in data set [1] (Treatment I (pure compound)) and 626 [ng/ml]/0.1 mg Lut/kg BW in data set [1] (setting [3]).
`CC1=C(/C=C/C(C)=C/C=C/C(C)=C/C=C/C=C(C)/C=C/C=C(C)/C=C/C2=C(C)C[C@@H](O)CC2(C)C)C(C)(C)C[C@H](O)C1` [Zeaxanthin, (3R,3′R)-beta, beta carotene-3,3′-diol]: in data set [2] (rat, in vivo, iv), the T½ stood at 5 h and the “plasma half life after treatment with epi-lutein” value is on record as “substantially prolonged”.

The record behind these values is US9849178B2, “Combination of carotenoids and epi-lutein” (Gupron GmbH, priority 2009, dated 2017).
